Measurements taken from ChEMBL document CHEMBL2069214, “Discovery of triazolopyrimidine-based PDE8B inhibitors: exceptionally ligand-efficient and lipophilic ligand-efficient compounds for the treatment of diabetes” (Bioorg Med Chem Lett, 2012).
≈ marks a conversion by molar mass, not a printed value. Calls of active or inactive are those of the source. The calls are words filed in the database; no cut-off is given here.

Experiments:
[1] = Intrinsic clearance in human liver microsomes; format: ADME, Microsome; settings: read-out: CLH
[2] = target: High affinity cAMP-specific and IBMX-insensitive 3',5'-cyclic phosphodiesterase 8B (Homo sapiens, UniProt O95263); assay: Inhibition of PDE8B expressed in Sf9 insect cells
[3] = Clearance in iv dosed rat; format: ADME, organism-based; settings: in vivo
[4] = (§1) Intrinsic clearance in rat liver microsomes; format: ADME, Microsome; settings: liver microsomes, read-out: CLH
[5] = Clearance in iv dosed dog; format: ADME, organism-based, Canis lupus familiaris; settings: in vivo
[6] = Genotoxicity in micronucleus
[7] = test system: Salmonella typhimurium; assay: Genotoxicity in Salmonella typhimurium; format: toxicity, organism-based; settings: salmonella enterica subsp. enterica serovar typhimurium
[8] = Solubility of the compound; format: physicochemical
[9] = species: Canis familiaris; assay: Cardiotoxicity in dog assessed as increase in heart rate at > 10 times IC50; format: toxicity, organism-based, Canis lupus familiaris; settings: in vivo
[10] = Oral bioavailability in rat; format: ADME, organism-based; settings: in vivo
[11] = Oral bioavailability in dog; format: ADME, organism-based, Canis lupus familiaris; settings: in vivo
[12] = Dissociation constant, pKa of the compound; format: physicochemical
[13] = Solubility of the compound at pH 7.4; format: physicochemical; settings: buffer
[14] = Solubility of the compound at pH 4; format: physicochemical; settings: buffer
[15] = target: High affinity cAMP-specific and IBMX-insensitive 3',5'-cyclic phosphodiesterase 8A (Homo sapiens, UniProt O60658); assay: Inhibition of PDE8A
[16] = species: Homo sapiens; assay: Inhibition of PDE
[17] = target: Kappa-type opioid receptor (Homo sapiens) (UniProt P41145); assay: Inhibition of kappa opioid receptor
[18] = target: Voltage-gated inwardly rectifying potassium channel KCNH2 (Homo sapiens, UniProt Q12809); assay: Inhibition of human ERG
[19] = Efflux ratio of permeability of the compound across MDCK cells; format: ADME, cell-based, Canis lupus familiaris; settings: dog
[20] = Fraction unbound in rat plasma; format: ADME, cell-free
[21] = Fraction unbound in dog plasma; format: ADME, cell-free, Canis lupus familiaris
[22] = Fraction unbound in human plasma; format: ADME, cell-free
[23] = species: Homo sapiens; assay: Selectivity ratio for PDE to PDE8B
[24] = test system: Pancreatic islet; assay: Induction of insulin secretion in human pancreatic islet cells at 0.001 to 100 uM in presence of glucose; format: functional
[25] = species: Canis familiaris; assay: Cardiotoxicity in dog assessed as increase in blood pressure at > 10 times IC50; format: toxicity, organism-based, Canis lupus familiaris
[26] = Volume of distribution at steady state in iv dosed dog; format: ADME, organism-based, Canis lupus familiaris; settings: in vivo, read-out: Vdss
[27] = Volume of distribution at steady state in iv dosed rat; format: ADME, organism-based; settings: in vivo, read-out: Vdss
[28] = target: 3',5'-cyclic-AMP phosphodiesterase 4D (Homo sapiens) (UniProt Q08499); assay: Inhibition of PDE4D at 1 uM
[29] = target: 3',5'-cyclic-AMP phosphodiesterase 4C (Homo sapiens) (UniProt Q08493); assay: Inhibition of PDE4C at 1 uM
[30] = test system: Liver microsomes; assay: as §1; format: ADME, Microsome; settings: microsomes

Sequence of High affinity cAMP-specific and IBMX-insensitive 3',5'-cyclic phosphodiesterase 8B (O95263 whole entry): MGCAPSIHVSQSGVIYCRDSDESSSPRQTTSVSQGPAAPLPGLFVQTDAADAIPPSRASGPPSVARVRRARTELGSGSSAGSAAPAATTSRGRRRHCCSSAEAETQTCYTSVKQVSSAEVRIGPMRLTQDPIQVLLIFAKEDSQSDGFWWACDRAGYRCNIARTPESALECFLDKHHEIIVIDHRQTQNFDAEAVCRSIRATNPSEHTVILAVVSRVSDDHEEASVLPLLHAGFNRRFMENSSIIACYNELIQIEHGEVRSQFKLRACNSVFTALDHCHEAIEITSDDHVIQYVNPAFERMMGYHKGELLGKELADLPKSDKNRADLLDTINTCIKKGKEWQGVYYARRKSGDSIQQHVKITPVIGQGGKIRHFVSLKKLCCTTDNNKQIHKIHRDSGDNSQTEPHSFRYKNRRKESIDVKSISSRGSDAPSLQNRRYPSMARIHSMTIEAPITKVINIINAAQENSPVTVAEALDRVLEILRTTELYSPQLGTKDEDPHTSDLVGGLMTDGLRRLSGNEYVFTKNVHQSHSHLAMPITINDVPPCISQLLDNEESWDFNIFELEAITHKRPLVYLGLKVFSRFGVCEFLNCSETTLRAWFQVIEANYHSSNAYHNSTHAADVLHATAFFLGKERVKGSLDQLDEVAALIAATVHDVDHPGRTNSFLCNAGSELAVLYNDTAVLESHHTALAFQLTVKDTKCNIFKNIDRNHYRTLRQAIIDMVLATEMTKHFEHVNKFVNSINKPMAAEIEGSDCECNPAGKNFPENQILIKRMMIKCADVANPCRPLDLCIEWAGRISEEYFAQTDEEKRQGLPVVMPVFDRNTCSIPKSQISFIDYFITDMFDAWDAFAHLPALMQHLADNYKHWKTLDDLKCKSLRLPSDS
Sequence of 3',5'-cyclic-AMP phosphodiesterase 4C (Homo sapiens) (Q08493 whole entry): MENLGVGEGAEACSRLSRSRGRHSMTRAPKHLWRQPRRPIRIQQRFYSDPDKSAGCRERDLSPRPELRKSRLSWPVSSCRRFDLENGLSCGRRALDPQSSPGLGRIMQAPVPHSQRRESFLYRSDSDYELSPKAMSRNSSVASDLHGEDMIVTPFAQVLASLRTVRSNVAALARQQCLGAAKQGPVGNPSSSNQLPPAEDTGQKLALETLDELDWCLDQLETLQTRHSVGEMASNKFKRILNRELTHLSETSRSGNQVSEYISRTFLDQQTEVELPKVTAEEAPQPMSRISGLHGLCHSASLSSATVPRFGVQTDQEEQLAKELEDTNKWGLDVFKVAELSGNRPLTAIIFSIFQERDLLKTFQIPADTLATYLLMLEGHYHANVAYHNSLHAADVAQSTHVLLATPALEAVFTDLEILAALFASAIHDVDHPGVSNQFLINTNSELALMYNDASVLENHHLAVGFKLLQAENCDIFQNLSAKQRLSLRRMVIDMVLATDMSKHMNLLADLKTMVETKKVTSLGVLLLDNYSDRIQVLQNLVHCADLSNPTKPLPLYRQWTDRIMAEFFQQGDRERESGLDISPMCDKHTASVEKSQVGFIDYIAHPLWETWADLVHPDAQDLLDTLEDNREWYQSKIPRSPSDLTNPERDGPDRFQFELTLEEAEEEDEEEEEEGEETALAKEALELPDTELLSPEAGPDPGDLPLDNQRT
Sequence of 3',5'-cyclic-AMP phosphodiesterase 4D (Homo sapiens) (Q08499 whole entry): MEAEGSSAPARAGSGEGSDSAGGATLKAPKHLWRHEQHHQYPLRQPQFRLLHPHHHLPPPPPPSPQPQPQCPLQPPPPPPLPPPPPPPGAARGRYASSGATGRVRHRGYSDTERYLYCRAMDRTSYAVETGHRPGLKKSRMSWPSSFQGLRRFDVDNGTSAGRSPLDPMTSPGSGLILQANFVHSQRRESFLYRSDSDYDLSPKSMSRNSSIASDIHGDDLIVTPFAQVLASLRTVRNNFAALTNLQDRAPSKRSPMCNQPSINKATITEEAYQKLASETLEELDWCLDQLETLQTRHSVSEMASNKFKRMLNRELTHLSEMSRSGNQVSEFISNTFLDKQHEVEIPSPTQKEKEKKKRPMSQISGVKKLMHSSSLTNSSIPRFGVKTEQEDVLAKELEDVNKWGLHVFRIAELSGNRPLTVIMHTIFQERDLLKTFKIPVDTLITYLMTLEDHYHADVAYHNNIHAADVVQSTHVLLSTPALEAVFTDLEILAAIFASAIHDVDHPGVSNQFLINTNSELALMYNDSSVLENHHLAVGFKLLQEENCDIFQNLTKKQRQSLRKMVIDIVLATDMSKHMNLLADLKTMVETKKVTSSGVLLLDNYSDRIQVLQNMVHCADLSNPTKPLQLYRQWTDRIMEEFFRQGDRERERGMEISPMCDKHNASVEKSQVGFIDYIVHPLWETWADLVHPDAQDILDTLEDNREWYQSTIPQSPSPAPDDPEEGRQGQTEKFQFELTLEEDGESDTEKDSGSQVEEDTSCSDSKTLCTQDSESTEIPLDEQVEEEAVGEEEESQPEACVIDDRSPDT
Sequence of Kappa-type opioid receptor (Homo sapiens) (P41145 whole entry): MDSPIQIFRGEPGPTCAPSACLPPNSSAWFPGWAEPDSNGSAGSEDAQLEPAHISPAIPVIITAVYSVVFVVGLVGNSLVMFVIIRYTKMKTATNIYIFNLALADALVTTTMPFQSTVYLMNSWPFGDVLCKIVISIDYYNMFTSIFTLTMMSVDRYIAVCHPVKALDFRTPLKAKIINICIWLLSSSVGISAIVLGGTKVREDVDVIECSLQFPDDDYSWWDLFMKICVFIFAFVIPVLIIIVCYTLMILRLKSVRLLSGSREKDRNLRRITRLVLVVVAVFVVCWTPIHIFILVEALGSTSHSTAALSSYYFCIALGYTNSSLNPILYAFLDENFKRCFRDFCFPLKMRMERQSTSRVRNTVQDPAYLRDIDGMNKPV
Sequence of High affinity cAMP-specific and IBMX-insensitive 3',5'-cyclic phosphodiesterase 8A (O60658 whole entry): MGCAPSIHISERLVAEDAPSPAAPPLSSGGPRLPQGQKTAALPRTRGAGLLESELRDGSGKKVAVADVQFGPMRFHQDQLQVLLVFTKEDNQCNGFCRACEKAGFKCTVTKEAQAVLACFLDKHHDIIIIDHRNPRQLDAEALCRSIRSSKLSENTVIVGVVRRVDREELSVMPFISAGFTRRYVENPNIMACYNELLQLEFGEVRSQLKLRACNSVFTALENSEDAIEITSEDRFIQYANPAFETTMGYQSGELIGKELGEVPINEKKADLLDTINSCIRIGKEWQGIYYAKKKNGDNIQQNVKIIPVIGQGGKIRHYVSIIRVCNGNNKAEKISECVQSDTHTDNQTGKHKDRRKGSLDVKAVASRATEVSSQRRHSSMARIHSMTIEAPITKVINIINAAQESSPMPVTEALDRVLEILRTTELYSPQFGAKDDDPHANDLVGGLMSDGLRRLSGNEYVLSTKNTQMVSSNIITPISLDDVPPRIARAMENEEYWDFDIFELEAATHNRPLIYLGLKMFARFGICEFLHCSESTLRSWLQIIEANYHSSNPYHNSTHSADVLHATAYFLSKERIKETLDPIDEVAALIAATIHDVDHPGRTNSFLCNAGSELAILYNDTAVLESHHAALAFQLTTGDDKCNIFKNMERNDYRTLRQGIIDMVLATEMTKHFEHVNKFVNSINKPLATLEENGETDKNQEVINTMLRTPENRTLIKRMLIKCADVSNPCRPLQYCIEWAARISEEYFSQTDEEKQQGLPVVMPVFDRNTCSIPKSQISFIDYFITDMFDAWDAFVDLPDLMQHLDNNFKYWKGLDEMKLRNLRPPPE
Sequence of Voltage-gated inwardly rectifying potassium channel KCNH2 (Q12809 whole entry): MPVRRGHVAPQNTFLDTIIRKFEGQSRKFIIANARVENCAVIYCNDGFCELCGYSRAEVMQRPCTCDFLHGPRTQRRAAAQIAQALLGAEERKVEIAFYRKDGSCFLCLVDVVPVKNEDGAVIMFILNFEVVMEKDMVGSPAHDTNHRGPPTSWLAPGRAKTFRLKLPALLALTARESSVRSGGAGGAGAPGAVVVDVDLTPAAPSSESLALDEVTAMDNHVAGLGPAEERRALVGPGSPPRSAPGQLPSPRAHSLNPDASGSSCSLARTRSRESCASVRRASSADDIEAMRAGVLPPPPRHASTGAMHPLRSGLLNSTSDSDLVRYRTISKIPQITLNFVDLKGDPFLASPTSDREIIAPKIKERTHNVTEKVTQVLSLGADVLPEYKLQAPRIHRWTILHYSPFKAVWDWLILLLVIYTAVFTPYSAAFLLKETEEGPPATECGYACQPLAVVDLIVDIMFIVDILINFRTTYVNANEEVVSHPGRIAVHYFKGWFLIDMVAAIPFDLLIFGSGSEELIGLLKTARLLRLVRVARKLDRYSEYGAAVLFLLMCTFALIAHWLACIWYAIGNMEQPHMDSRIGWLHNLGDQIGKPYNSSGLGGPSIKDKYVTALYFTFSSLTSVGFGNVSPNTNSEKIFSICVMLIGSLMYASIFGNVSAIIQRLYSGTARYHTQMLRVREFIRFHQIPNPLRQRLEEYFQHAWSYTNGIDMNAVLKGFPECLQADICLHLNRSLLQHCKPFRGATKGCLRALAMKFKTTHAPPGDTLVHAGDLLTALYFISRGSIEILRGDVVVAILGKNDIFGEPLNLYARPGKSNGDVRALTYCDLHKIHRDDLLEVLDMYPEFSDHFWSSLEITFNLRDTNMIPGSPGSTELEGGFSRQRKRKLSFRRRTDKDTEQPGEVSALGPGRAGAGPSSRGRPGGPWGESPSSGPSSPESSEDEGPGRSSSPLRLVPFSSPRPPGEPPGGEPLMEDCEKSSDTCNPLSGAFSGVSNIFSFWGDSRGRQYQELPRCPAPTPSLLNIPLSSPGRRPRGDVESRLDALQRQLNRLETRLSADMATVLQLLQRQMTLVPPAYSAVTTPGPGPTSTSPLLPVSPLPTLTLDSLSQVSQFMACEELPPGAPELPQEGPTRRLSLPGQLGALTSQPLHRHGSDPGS

Nc1nc(-c2ccccc2)nc2c1nnn2CC1CCCCO1 (centres undefined)
microsomal CLint [1]: 17 µL/min/mg

FC(F)(F)c1nc(NCc2cccnc2)c2nnn(CC3CCCCO3)c2n1 (centres undefined)
IC50 [2]: > 0.42 µM

Nc1nc(C2CC2)nc2c1nnn2C[C@H]1CN(Cc2ncccn2)CCO1
clearance [3]: 7.44 L/h/kg | microsomal CLint [4]: 75 µL/min/mg | microsomal CLint [1]: 16 µL/min/mg | clearance [5]: 0.42 L/h/kg | Activity [6]: Non-toxic | Activity [7]: Non-toxic

Nc1nc(C2CC2)nc2c1nnn2CC1CN(Cc2ccccc2)CCO1 (centres undefined)
solubility [8]: soluble

COCc1nc(N)c2nnn(CC3CCCCO3)c2n1 (centres undefined)
microsomal CLint [1]: < 7.2 µL/min/mg

CC(C)n1cc(Cn2nnc3c(N)nc(C4CC4)nc32)cn1
microsomal CLint [1]: < 7.2 µL/min/mg

Cc1nc(N)c2nnn(C[C@H]3CN(Cc4nccs4)CCO3)c2n1
Activity [9]: Toxic | clearance [3]: 1.38 L/h/kg | microsomal CLint [4]: < 14 µL/min/mg | IC50 [2]: 0.0013 µM | microsomal CLint [1]: < 8 µL/min/mg | bioavailability [10]: 63% | clearance [5]: 0.21 L/h/kg | bioavailability [11]: 100% | pKa [12]: 4.9 | solubility [13]: 0.15 mg/mL (≈ 0.433 mM) | solubility [14]: 2.9 mg/mL (≈ 8.37 mM) | IC50 [15]: 0.0019 µM | INH [16]: > 10 µM | Activity [6]: Non-toxic | Activity [7]: Non-toxic | INH [17]: 1.3 µM | IC50 [18]: > 100 µM | efflux ratio [19]: 3.5 | fraction unbound [20]: 0.88 | fraction unbound [21]: 0.78 | fraction unbound [22]: 0.46 | Selectivity ratio [23]: > 1000 | Activity [24]: Active | Activity [25]: Toxic

CCc1nc(Cn2nnc3c(N)nc(C4CC4)nc32)cs1
Vd [26]: 0.9 L/kg | Vd [27]: 5.5 L/kg | clearance [3]: 1.74 L/h/kg | microsomal CLint [4]: < 14 µL/min/mg | microsomal CLint [1]: 24.6 µL/min/mg | bioavailability [10]: < 5% | clearance [5]: 0.66 L/h/kg | bioavailability [11]: < 5%

Nc1nc(C(F)(F)F)nc2c1nnn2C[C@H]1CN(Cc2ccccn2)CCO1
clearance [3]: 7.26 L/h/kg | microsomal CLint [4]: 36 µL/min/mg | microsomal CLint [1]: 36 µL/min/mg | clearance [5]: 0.51 L/h/kg | Activity [6]: Non-toxic | Activity [7]: Non-toxic

Cc1nc(N)c2nnn(C[C@H]3CN(Cc4cc(F)cc(F)c4)CCO3)c2n1
clearance [3]: 1.68 L/h/kg | microsomal CLint [4]: 80 µL/min/mg | microsomal CLint [1]: 36 µL/min/mg | bioavailability [10]: 12% | clearance [5]: 0.288 L/h/kg | Activity [6]: Non-toxic | Activity [7]: Non-toxic

Nc1nc(C2CC2)nc2c1nnn2C[C@@H]1CCN(Cc2nccs2)C1
inhibition [28]: 52% | microsomal CLint [4]: 230 µL/min/mg | inhibition [29]: 62% | IC50 [2]: 0.206 µM | microsomal CLint [1]: 30 µL/min/mg

Nc1nc(C2CC2)nc2c1nnn2Cc1ccc(Cl)cc1
microsomal CLint [1]: < 7.2 µL/min/mg

Nc1nc(C2CC2)nc2c1nnn2CC1CCCCO1 (centres undefined)
microsomal CLint [30]: 93 µL/min/mg | microsomal CLint [1]: < 7.2 µL/min/mg

Nc1nc(C2CC2)nc2c1nnn2CC1CCCOC1 (centres undefined)
microsomal CLint [4]: 35 µL/min/mg | microsomal CLint [1]: < 7.2 µL/min/mg

Nc1ncnc2c1nnn2CC1CCCCO1 (centres undefined)
microsomal CLint [1]: < 7.2 µL/min/mg

Nc1nc(C2CC2)nc2c1nnn2C[C@H]1CCCO1
microsomal CLint [4]: < 28 µL/min/mg | microsomal CLint [1]: 11.9 µL/min/mg

CCc1cnc(N2CC[C@@H](Cn3nnc4c(N)nc(C5CC5)nc43)C2)nc1
microsomal CLint [4]: 244 µL/min/mg | microsomal CLint [1]: 52 µL/min/mg

Nc1nc(C2CC2)nc2c1ncn2C[C@H]1CCCO1
IC50 [2]: > 2 µM

CCc1csc(CN2CCO[C@@H](Cn3nnc4c(N)nc(C)nc43)C2)n1
clearance [3]: 1.44 L/h/kg | microsomal CLint [4]: 22 µL/min/mg | microsomal CLint [1]: 15 µL/min/mg | bioavailability [10]: 45% | clearance [5]: 0.336 L/h/kg | Activity [6]: Non-toxic | Activity [7]: Non-toxic

Nc1nc(C2CC2)nc2c1nnn2CC1CCCN(Cc2ccccc2)C1 (centres undefined)
inhibition [28]: 64% | inhibition [29]: 60% | IC50 [2]: 3.62 µM | microsomal CLint [1]: 150 µL/min/mg

Nc1nc(C2CC2)nc2c1nnn2C[C@H]1CN(Cc2nccs2)CCO1
clearance [3]: 4.32 L/h/kg | microsomal CLint [4]: 50 µL/min/mg | microsomal CLint [1]: 20 µL/min/mg | bioavailability [10]: 20% | Activity [6]: Non-toxic | Activity [7]: Non-toxic

Nc1nc(C(F)(F)F)nc2c1nnn2C[C@H]1CCCO1
Vd [26]: 1.4 L/kg | Vd [27]: 1.7 L/kg | clearance [3]: 3.66 L/h/kg | bioavailability [10]: 17% | clearance [5]: 1.32 L/h/kg | bioavailability [11]: 13%

Nc1nc(C2CCCCC2)nc2c1nnn2CC1CCCCO1 (centres undefined)
microsomal CLint [1]: 100 µL/min/mg

Nc1nc(C2CC2)nc2c1nnn2Cc1cc(C2CC2)n[nH]1
microsomal CLint [1]: < 7.2 µL/min/mg

Cc1ccnc(N2CCCC(Cn3nnc4c(N)nc(C5CC5)nc43)C2)n1 (centres undefined)
microsomal CLint [4]: 625 µL/min/mg | microsomal CLint [1]: 303 µL/min/mg
